Experimental data from patent publication US11149040B2, “Fused triazole agonists of the APJ receptor” (AMGEN INC., priority 2017, dated 2021).

Molecular target: human APJ receptor (Homo sapiens (Human), UniProt P35414)
Assay: [35S]GTPγS binding assay on membranes from CHO cells stably expressing human APJ receptor
Type: biochemical
Conditions: read-out: Activity hAPJ SPA EC50 IP
Protocol: [^35S]GTPγS Binding The human APJ receptor was cloned by polymerase chain reaction and the gene encoding the receptor was subcloned in pFLAG-CMV™-3 expression vector (Sigma, Saint Louis, Mo. USA) in-house at Amgen. A GTPγS binding assay was performed on membranes prepared from CHO cells stably expressing human APJ receptor. The optimum experimental conditions for the concentrations of GDP, MgCl2, and NaCl in the assay buffer were initially determined. […] Incubation was at RT for 90 min and the microplate was read using a ViewLux™ ultra HTS Microplate Imager (PerkinElmer, Inc.). All the results presented are means of several independent experiments and analyzed by non-linear regression methods using the commercially available program Prism (GraphPad, San Diego, Calif.) providing the EC50 values detailed in Table 13.

Chain of human APJ receptor (P35414 whole entry): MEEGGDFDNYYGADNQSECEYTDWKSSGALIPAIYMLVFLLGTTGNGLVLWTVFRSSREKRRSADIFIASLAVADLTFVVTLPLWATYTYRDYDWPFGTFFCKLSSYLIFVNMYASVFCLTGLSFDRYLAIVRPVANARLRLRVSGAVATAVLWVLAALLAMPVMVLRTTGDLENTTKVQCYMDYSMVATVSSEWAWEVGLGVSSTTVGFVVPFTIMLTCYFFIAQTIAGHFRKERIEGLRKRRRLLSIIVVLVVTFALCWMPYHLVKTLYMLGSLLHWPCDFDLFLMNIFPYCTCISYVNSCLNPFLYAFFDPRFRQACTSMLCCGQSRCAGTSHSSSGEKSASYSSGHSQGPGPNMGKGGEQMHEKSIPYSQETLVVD

Point of comparison: `COC[C@@H]1COc2ncccc2-c2nnc(NS(=O)(=O)[C@@H](C)[C@H](OC(C)C)c3ncc(C)cn3)n21` (mixture of isomers) [Example 59.0, (1R,2S)-N-((5R)-5-(methoxymethyl)-5,6-dihydropyrido[3,2-f][1,2,4]triazolo[4,3-d][1,4]oxazepin-3-yl)-1-(5-methyl-2-pyrimidinyl)-1-(2-propanyloxy)-2-propanesulfonamide and (1R,2S)-N-((5S)-5-(methoxymethyl)-5,6-dihydropyrido[3,2-f][1,2,4]triazolo[4,3-d][1,4]oxazepin-3-yl)-1-(5-methyl-2-pyrimidinyl)-1-(2-propanyloxy)-2-propanesulfonamide], EC50 1200 nM. Against it:
- COC[C@@H]1COc2cccnc2-c2nnc(NS(=O)(=O)[C@@H](C)[C@@H](OC(C)C)c3ncc(C)cn3)n21 (mixture of isomers) [Example 61.0, (1S,2S)-N-((5R)-5-(methoxymethyl)-5,6-dihydropyrido[2,3-f][1,2,4]triazolo[4,3-d][1,4]oxazepin-3-yl)-1-(5-methyl-2-pyrimidinyl)-1-(2-propanyloxy)-2-propanesulfonamide and (1S,2S)-N-((5S)-5-(methoxymethyl)-5,6-dihydropyrido[2,3-f][1,2,4]triazolo[4,3-d][1,4]oxazepin-3-yl)-1-(5-methyl-2-pyrimidinyl)-1-(2-propanyloxy)-2-propanesulfonamide] — 2.7-fold lower, 440 nM
- Cc1cnc([C@H](OC(C)C)[C@H](C)S(=O)(=O)Nc2nnc3n2[C@H](COC(C)C)COc2ccc(F)cc2-3)nc1 (mixture of isomers) [Example 62.0, (1S,2S)-N-((R)-10-fluoro-5-(isopropoxymethyl)-5,6-dihydrobenzo[f][1,2,4]triazolo[4,3-d][1,4]oxazepin-3-yl)-1-isopropoxy-1-(5-methylpyrimidin-2-yl)propane-2-sulfonamide and (1S,2S)-N-((S)-10-fluoro-5-(isopropoxymethyl)-5,6-dihydrobenzo[f][1,2,4]triazolo[4,3-d][1,4]oxazepin-3-yl)-1-isopropoxy-1-(5-methylpyrimidin-2-yl)propane-2-sulfonamide] — 57-fold lower, 21 nM
- COC[C@@H]1COc2cnccc2-c2nnc(NS(=O)(=O)[C@@H](C)[C@@H](OC(C)C)c3ncc(C)cn3)n21 (mixture of isomers) [Example 65.0, (1S,2S)-N-((5R)-5-(methoxymethyl)-5,6-dihydropyrido[4,3-f][1,2,4]triazolo[4,3-d][1,4]oxazepin-3-yl)-1-(5-methyl-2-pyrimidinyl)-1-(2-propanyloxy)-2-propanesulfonamide and (1S,2S)-N-((5S)-5-(methoxymethyl)-5,6-dihydropyrido[4,3-f][1,2,4]triazolo[4,3-d][1,4]oxazepin-3-yl)-1-(5-methyl-2-pyrimidinyl)-1-(2-propanyloxy)-2-propanesulfonamide] — the same, 1200 nM
- COC[C@@H]1COc2ccccc2-c2nnc(NS(=O)(=O)[C@@H](C)[C@H](C)c3ncc(OC)cn3)n21 (single isomer, unassigned) [Example 1.0, (2S,3R)-N-((5R)-5-(methoxymethyl)-5,6-dihydro[1,2,4]triazolo[4,3-d][1,4]benzoxazepin-3-yl)-3-(5-methoxy-2-pyrimidinyl)-2-butanesulfonamide or (2S,3R)-N-((5S)-5-(methoxymethyl)-5,6-dihydro[1,2,4]triazolo[4,3-d][1,4]benzoxazepin-3-yl)-3-(5-methoxy-2-pyrimidinyl)-2-butanesulfonamide] — 10-fold lower, 120 nM
- COC[C@@H]1COc2ccccc2-c2nnc(NS(=O)(=O)[C@@H](C)[C@H](C)c3ncc(OC)cn3)n21 (single isomer, unassigned) [Example 2.0, (2S,3R)-N-((5R)-5-(methoxymethyl)-5,6-dihydro[1,2,4]triazolo[4,3-d][1,4]benzoxazepin-3-yl)-3-(5-methoxy-2-pyrimidinyl)-2-butanesulfonamide or (2S,3R)-N-((5S)-5-(methoxymethyl)-5,6-dihydro[1,2,4]triazolo[4,3-d][1,4]benzoxazepin-3-yl)-3-(5-methoxy-2-pyrimidinyl)-2-butanesulfonamide] — 1.6-fold lower, 770 nM
- COC[C@@H]1COc2ccccc2-c2nnc(NS(=O)(=O)[C@@H](C)[C@@H](OC(C)C)c3ncc(C)cn3)n21 (single isomer, unassigned) [Example 4.0, (1S,2S)-N-((5R)-5-(methoxymethyl)-5,6-dihydro[1,2,4]triazolo[4,3-d][1,4]benzoxazepin-3-yl)-1-(5-methyl-2-pyrimidinyl)-1-(2-propanyloxy)-2-propanesulfonamide or (1S,2S)-N-((5S)-5-(methoxymethyl)-5,6-dihydro[1,2,4]triazolo[4,3-d][1,4]benzoxazepin-3-yl)-1-(5-methyl-2-pyrimidinyl)-1-(2-propanyloxy)-2-propanesulfonamide] — 71-fold lower, 17 nM
- COC[C@@H]1COc2ccccc2-c2nnc(NS(=O)(=O)[C@@H](C)[C@@H](OC(C)C)c3ncc(C)cn3)n21 (single isomer, unassigned) [Example 5.0, (1S,2S)-N-((5R)-5-(methoxymethyl)-5,6-dihydro[1,2,4]triazolo[4,3-d][1,4]benzoxazepin-3-yl)-1-(5-methyl-2-pyrimidinyl)-1-(2-propanyloxy)-2-propanesulfonamide or (1S,2S)-N-((5S)-5-(methoxymethyl)-5,6-dihydro[1,2,4]triazolo[4,3-d][1,4]benzoxazepin-3-yl)-1-(5-methyl-2-pyrimidinyl)-1-(2-propanyloxy)-2-propanesulfonamide] — 9.2-fold lower, 130 nM
- COC[C@@H]1COc2ccc(OC)nc2-c2nnc(NS(=O)(=O)[C@@H](C)[C@H](C)c3ncc(OC)cn3)n21 (single isomer, unassigned) [Example 6.0, (2S,3R)-N-((5R)-10-methoxy-5-(methoxymethyl)-5,6-dihydropyrido[2,3-f][1,2,4]triazolo[4,3-d][1,4]oxazepin-3-yl)-3-(5-methoxy-2-pyrimidinyl)-2-butanesulfonamide or (2S,3R)-N-((5S)-10-methoxy-5-(methoxymethyl)-5,6-dihydropyrido[2,3-f][1,2,4]triazolo[4,3-d][1,4]oxazepin-3-yl)-3-(5-methoxy-2-pyrimidinyl)-2-butanesulfonamide] — 1.9-fold higher, 2300 nM
- COC[C@@H]1COc2ccc(OC)nc2-c2nnc(NS(=O)(=O)[C@@H](C)[C@H](C)c3ncc(OC)cn3)n21 (single isomer, unassigned) [Example 7.0, (2S,3R)-N-((5R)-10-methoxy-5-(methoxymethyl)-5,6-dihydropyrido[2,3-f][1,2,4]triazolo[4,3-d][1,4]oxazepin-3-yl)-3-(5-methoxy-2-pyrimidinyl)-2-butanesulfonamide or (2S,3R)-N-((5S)-10-methoxy-5-(methoxymethyl)-5,6-dihydropyrido[2,3-f][1,2,4]traizolo[4,3-d][1,4]oxazepin-3-yl)-3-(5-methoxy-2-pyrimidinyl)-2-butanesulfonamide] — 4.8-fold lower, 250 nM
- COC[C@@H]1COc2c(OC)cccc2-c2nnc(NS(=O)(=O)[C@@H](C)[C@H](C)c3ncc(OC)cn3)n21 (single isomer, unassigned) [Example 8.0, (2S,3R)-N-((5R)-8-methoxy-5-(methoxymethyl)-5,6-dihydro[1,2,4]triazolo[4,3-d][1,4]benzoxazepin-3-yl)-3-(5-methoxy-2-pyrimidinyl)-2-butanesulfonamide or (2S,3R)-N-((5S)-8-methoxy-5-(methoxymethyl)-5,6-dihydro[1,2,4]triazolo[4,3-d][1,4]benzoxazepin-3-yl)-3-(5-methoxy-2-pyrimidinyl)-2-butanesulfonamide] — 4.4-fold lower, 270 nM
- COC[C@@H]1COc2c(OC)cccc2-c2nnc(NS(=O)(=O)[C@@H](C)[C@H](C)c3ncc(OC)cn3)n21 (single isomer, unassigned) [Example 9.0, (2S,3R)-N-((5R)-8-methoxy-5-(methoxymethyl)-5,6-dihydro[1,2,4]triazolo[4,3-d][1,4]benzoxazepin-3-yl)-3-(5-methoxy-2-pyrimidinyl)-2-butanesulfonamide or (2S,3R)-N-((5S)-8-methoxy-5-(methoxymethyl)-5,6-dihydro[1,2,4]triazolo[4,3-d][1,4]benzoxazepin-3-yl)-3-(5-methoxy-2-pyrimidinyl)-2-butanesulfonamide] — within 1.5-fold, 1600 nM
- COC[C@@H]1COc2ccc(OC)nc2-c2nnc(NS(=O)(=O)[C@@H](C)[C@H](C)c3ncc(C)cn3)n21 (single isomer, unassigned) [Example 12.0, (2S,3R)-N-((5R)-10-methoxy-5-(methoxymethyl)-5,6-dihydropyrido[2,3-f][1,2,4]triazolo[4,3-d][1,4]oxazepin-3-yl)-3-(5-methyl-2-pyrimidinyl)-2-butanesulfonamide or (2S,3R)-N-((5S)-10-methoxy-5-(methoxymethyl)-5,6-dihydropyrido[2,3-f][1,2,4]triazolo[4,3-d][1,4]oxazepin-3-yl)-3-(5-methyl-2-pyrimidinyl)-2-butanesulfonamide] — the same, 1200 nM
- COC[C@@H]1COc2ccc(OC)nc2-c2nnc(NS(=O)(=O)[C@@H](C)[C@H](C)c3ncc(C)cn3)n21 (single isomer, unassigned) [Example 13.0, (2S,3R)-N-((5R)-10-methoxy-5-(methoxymethyl)-5,6-dihydropyrido[2,3-f][1,2,4]triazolo[4,3-d][1,4]oxazepin-3-yl)-3-(5-methyl-2-pyrimidinyl)-2-butanesulfonamide or (2S,3R)-N-((5S)-10-methoxy-5-(methoxymethyl)-5,6-dihydropyrido[2,3-f][1,2,4]traizolo[4,3-d][1,4]oxazepin-3-yl)-3-(5-methyl-2-pyrimidinyl)-2-butanesulfonamide] — 3.2-fold lower, 370 nM
